The text below walks through data of PubChem BioAssay AID179 (DTP/NCI, 2004).

Molecules are shown by their SMILES. Active and inactive are the calls of the source.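 How the source made its calls: active means compounds giving half or more protection of infected cells from virus-caused growth loss, again on retest; inactive means the rest.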 A value given as a limit tells only on which side of the number the result lay.

In this experiment the test system is CEM cells HIV-1 protection, formazan growth assay. Description: NCI AIDS Antiviral Assay. Particulars: for IC50: measured here: growth of uninfected CEM cells. In outline: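 Five concentrations of each compound were applied to infected and uninfected human CEM cells. Protection from HIV-1 was judged from growth measured with a soluble formazan assay.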

As to `CC(C)CCCC(C)[C@H]1CCC2C3CC[C@H]4C[C@@H](CCCP(=O)(c5ccccc5)c5ccccc5)CC[C@]4(C)C3CC[C@@]21C` (some centres not stated), the EC50 was greater than 50.1 µM and the IC50 was greater than 50.1 µM.

On to `C=CCc1c(O)c2c(c3oc(=O)cc(C)c13)CC(C)O2` (configuration not stated), for which the outcome was inactive.

On to `CCCCc1ccc(Nc2nc3c(ncn3COCCBr)c(=O)[nH]2)cc1`, for which the EC50 was greater than 200 µM and the half-maximal inhibitory concentration (IC50) is greater than 200 µM.

Take `CN1COc2c(nc(-c3ccccc3)[nH]c2=O)C1`: the EC50 was greater than 1020 µM and the IC50 amounted to 61.7 µM.

Consider `Nc1nc(C=O)nc2c1ncn2C1OC(CO)C(O)C1O` (configuration not stated), for which the EC50 was greater than 200 µM and the half-inhibitory concentration (IC50) is 30.9 µM.

On to `CC(C)(C)C1(C#N)C(=O)N(c2ccc(Cl)cc2)C12c1ccccc1-c1ccccc12` (configuration not stated), for which the EC50 is greater than 9.12 µM and the IC50 is greater than 9.12 µM.

As for `CC(C)/C(Cl)=N\OC(=O)Nc1ccc(S(N)(=O)=O)cc1`, the EC50 was greater than 200 µM and the 50% inhibitory concentration (IC50) came to 9.77 µM.

In the case of `O=C1C2=C(c3ccccc31)C(c1ccc(Cl)cc1)NC(=S)N2` (configuration not stated), the EC50 is greater than 57.5 µM and the IC50 is 29.5 µM.

For `O=C1C=CC(=O)c2c1ccc1c3ccccc3n(Cc3cccc([N+](=O)[O-])c3)c21`, the EC50 is greater than 200 µM and the half-inhibitory concentration (IC50) was found to be 1.35 µM.

Regarding `O=c1[nH]cc(CCl)c(=O)[nH]1`, the EC50 was greater than 200 µM and the IC50 is greater than 200 µM.

`CCCCn1c2c(c3ccccc3c1=O)C(=O)c1ccccc1-2`: the EC50 was greater than 69.2 µM and the IC50 was 33.9 µM.

For the molecule `O=C(C(c1ccccc1)c1ccccc1)C(O)(c1ccccc1)c1ccccc1`, the EC50 was 30.9 µM and the IC50 amounted to 34.7 µM.

Consider `CC(=O)Oc1cc(OC(C)=O)c(CC=C(C)C)c(-c2cc3ccc(OC(C)=O)c(C/C=C(\C)CCC=C(C)C)c3o2)c1`, for which the EC50 was greater than 4.57 µM and the IC50 is greater than 4.57 µM.

`CCC1(O)C(=O)c2ccccc2N(c2ccccc2)C1=O` (configuration not stated): the EC50 was greater than 200 µM and the concentration for half-maximal inhibition (IC50) was greater than 200 µM.

Consider `Clc1cc(Cl)c2nncc(N3CC3)c2c1`, for which the outcome was inactive.

On to `NCCSSCc1ccccc1CSSCCN`, for which the result was inactive.

As to `O=C(Nc1nc2ncn(CCNCc3ccccc3)c2c(=O)[nH]1)c1ccccc1`, the EC50 is greater than 174 µM and the IC50 was found to be 105 µM.

For `S=C1NC(c2cccs2)N2C(=S)NC(c3cccs3)N12` (configuration not stated), the EC50 is greater than 200 µM and the concentration for half-maximal inhibition (IC50) was greater than 200 µM.

On to `OC1(c2ccc(Cl)cc2)c2ccccc2C2=Nc3ccccc3CN21` (configuration not stated), for which the EC50 was greater than 200 µM and the IC50 is 115 µM.

For `COc1ccccc1C1SC(c2ccccc2)(c2ccccc2)OC1=O` (configuration not stated), the EC50 was greater than 3.98 µM and the half-inhibitory concentration (IC50) is greater than 3.98 µM.

Turning to `C1CCC(CSSCC2(N3CCCC3)CCCCC2)(N2CCCC2)CC1`, the EC50 is greater than 200 µM and the 50% inhibitory concentration (IC50) is greater than 100 µM.

For the molecule `[N-]=[N+]=NI1OC(=O)c2ccccc21`, the EC50 was greater than 200 µM and the IC50 came out at 55 µM.

For the molecule `CC(C)(CO)C(O)C(=O)NCCCO` (configuration not stated), the EC50 was greater than 200 µM and the half-maximal inhibitory concentration (IC50) was greater than 200 µM.

As to `O=c1[nH]c(-c2ccccc2)nc2cc([N+](=O)[O-])c(/C(Cl)=C/c3ccccc3)cc12`, the result was inactive.

Consider `CC(=O)OC1CC2C(=S)Nc3cc4c(cc3C(=O)N2C1)OCO4` (configuration not stated), for which the EC50 was greater than 200 µM and the concentration for half-maximal inhibition (IC50) was greater than 200 µM.

For the molecule `COc1ccc(NS(=O)c2ccc(OC)cc2)cc1` (configuration not stated), the EC50 is greater than 200 µM and the IC50 turned out to be 15.8 µM.

On to `CCNC(=O)Cc1nc2c(N)ncnc2n1C1OC(CO)C(O)C1O` (configuration not stated), for which the EC50 was greater than 200 µM and the 50% inhibitory concentration (IC50) came out at 81.3 µM.

On to `CCN(CC)CCN(C)CCc1ccc(Br)cc1`, for which the EC50 is greater than 126 µM and the 50% inhibitory concentration (IC50) was determined as 112 µM.

Consider `COc1ccc(OC)c2c(=S)c3ccccc3[nH]c12`, for which the result was inactive.

Consider `CCOC(=O)Cc1ccc(Nc2nc3cc(C(F)(F)F)ccc3nc2C(=O)OCC)cc1`, for which the EC50 was greater than 100 µM and the IC50 was greater than 100 µM.

As to `C=C1c2[nH]c3c([N+](=O)[O-])c(OC)ccc3c2CCN1C(C)=O`, the result was inactive.

As for `Cc1cn(C2CC(N(O)C3C4CC5CC(C4)CC3C5)C(CO)O2)c(=O)[nH]c1=O` (configuration not stated), the EC50 is greater than 200 µM and the IC50 stood at 120 µM.

Regarding `N#CCC1C2CC3C(C2=O)C13` (configuration not stated), the EC50 was greater than 200 µM and the half-inhibitory concentration (IC50) was greater than 200 µM.

Regarding `CCCCCC=C(c1cc(Cl)c(O)c(C(=O)NO)c1)c1cc(Cl)c(O)c(C(=O)NO)c1`, the EC50 was greater than 200 µM and the IC50 worked out at 35.5 µM.

As to `OCC(Cn1cncn1)(c1ccc(F)cc1F)n1cncn1` (configuration not stated), the EC50 was greater than 200 µM and the IC50 is greater than 200 µM.

With `O=C(Nc1cccc(Cl)c1)C(=O)C(C(=O)c1ccc2ccccc2c1)C1OC(=O)c2ccccc21` (configuration not stated), the EC50 is greater than 74.1 µM and the IC50 worked out at 33.9 µM.

Take `CC(=O)Oc1ccc(/C=C/C(=O)O[C@@H](C)[C@H](C)OC(=O)/C=C/c2ccc(OC(C)=O)c(OC(C)=O)c2)cc1OC(C)=O`: the EC50 is greater than 100 µM and the concentration for half-maximal inhibition (IC50) worked out at 5.62 µM.

Take `OC(C#CCN1CCCC1)(c1ccccc1)c1ccc(F)cc1.[C-]#[O+].[C-]#[O+].[C-]#[O+].[C-]#[O+].[C-]#[O+].[C-]#[O+].[Co].[Co]` (configuration not stated): the EC50 was greater than 200 µM and the IC50 worked out at 7.41 µM.

Turning to `COc1ccc(-c2cc(-c3ccco3)c(C#N)c(=S)n2C2OC(COC(C)=O)C(OC(C)=O)C(OC(C)=O)C2OC(C)=O)cc1` (configuration not stated), the 50% effective concentration (EC50) was 123 µM and the half-maximal inhibitory concentration (IC50) came out at 145 µM.

For `Cc1nnc(Nc2ccccc2)o1`, the outcome was inactive.

As for `CC(=O)OCC(=O)[C@@]12OC(C)(C)O[C@@H]1C[C@H]1[C@@H]3CC(C=O)=C4C=C(OCCCl)CC[C@]4(C)[C@@]3(F)[C@@H](O)C[C@@]12C`, the EC50 was greater than 200 µM and the concentration for half-maximal inhibition (IC50) was 6.46 µM.

On to `Clc1ccc(CN2COc3c(ccc4cccnc34)C2)cc1`, for which the EC50 was greater than 200 µM and the half-maximal inhibitory concentration (IC50) stood at 1.82 µM.

Turning to `O=[N+]([O-])c1ccc2occ3c2c1CCC3`, the EC50 is 67.6 µM and the IC50 is 263 µM.

`CCOC1OC2O[C@]3(C)CCC4C(C)CCC([C@H]1C)C24OO3` (some centres not stated): the result was inactive.

For `C/C(CC(=O)Nc1ccc(C)c(C)c1)=N\N(c1ccccc1)c1ccccc1`, the EC50 is greater than 97.7 µM and the half-maximal inhibitory concentration (IC50) is greater than 97.7 µM.

As for `COC1(OC)C2(Cl)CCC1(Cl)C(OC(C)=O)C2` (configuration not stated), the EC50 was greater than 200 µM and the IC50 came to 145 µM.

For `CO[C@H]1CC[C@@]2(C)C(CC[C@@]3(C)CC4=C[C@H]5C(C)(CO)C(=O)CCC5(C)[C@H]4CCC32)C1(C)C` (some centres not stated), the EC50 is greater than 100 µM and the half-maximal inhibitory concentration (IC50) is greater than 100 µM.

Take `CC12CCC(=O)CC13CCC2OC(O)C3` (configuration not stated): the result was inactive.

For `Cc1ccc(NP(=O)(Oc2ccccc2)N(CCCl)CCCl)cc1` (configuration not stated), the EC50 is greater than 35.5 µM and the IC50 was determined as 15.8 µM.

Turning to `O=C1N[C@@H]2C(=C[C@H](O)[C@@H](O)[C@H]2O)c2cc3c(c(O)c21)OCO3`, the outcome was inactive.

Regarding `O=C(O)CSCCCCSCC(=O)O`, the EC50 is greater than 1050 µM and the IC50 was greater than 1050 µM.

For `Cc1cnc2c(c1)C(=O)C1=C(OC(C)(C)CC1O)C2=O` (configuration not stated), the EC50 is greater than 26.3 µM and the half-inhibitory concentration (IC50) worked out at 3.39 µM.

Consider `N#CC(C#N)=C(N)/C(C#N)=C\c1ccnc2ccccc12`, for which the EC50 was greater than 26.3 µM and the concentration for half-maximal inhibition (IC50) came to 4.07 µM.

On to `CCCC[As](CCCC)SC1CCC2(C)C(=CCC3C4CCC(=O)C4(C)CCC32)C1` (configuration not stated), for which the EC50 is greater than 46.8 µM and the IC50 was 15.8 µM.

`CC(=O)O[C@H]1CC[C@H]2[C@@H]3CCc4cc(O)c(I)cc4[C@H]3CC[C@]12C`: the EC50 was greater than 200 µM and the half-maximal inhibitory concentration (IC50) turned out to be 12 µM.

On to `O=c1oc2ccccc2c(O)c1C1c2c(c3ccccc3oc2=O)Oc2c1c(=O)oc1ccccc21`, for which the result was inactive.

For the molecule `O=C1/C(=C/c2ccc(Cl)cc2)Cc2ccccc21`, the EC50 was greater than 5.62 µM and the half-maximal inhibitory concentration (IC50) was greater than 5.62 µM.

With `CC(NNC(=S)N1CCCCCC1)c1cccnn1` (configuration not stated), the EC50 is greater than 200 µM and the IC50 was found to be 0.355 µM.

Regarding `CNCC(OB(c1ccccc1)c1ccccc1)c1ccccc1` (configuration not stated), the EC50 was greater than 200 µM and the IC50 was 60.3 µM.

With `CO[C@@H]1[C@H](O)c2coc3c2[C@@](C)(c2ccc4c(c2C3=O)CCC4=O)[C@@H]1O`, the EC50 was greater than 200 µM and the IC50 is 28.8 µM.

In the case of `Cc1ccc(C2(O)c3cccc4cccc(c34)C2(O)c2ccc(C)cc2)cc1` (configuration not stated), the EC50 is greater than 200 µM and the IC50 came to 13.5 µM.

Regarding `O=C1Oc2ccccc2C(=O)/C1=C1/C=C(c2ccccc2)SS1`, the EC50 is greater than 200 µM and the concentration for half-maximal inhibition (IC50) was greater than 200 µM.

Regarding `CC(=O)[C@H]1CCC2[C@@H]3CC=C4C[C@@H](OC5OC(COS(=O)(=O)O)C(O)C(O)C5O)CC[C@]4(C)C3CC[C@@]21C` (some centres not stated), the EC50 is greater than 38 µM and the 50% inhibitory concentration (IC50) is greater than 38 µM.

As to `CC(O)(c1ccc(OCCC[N+](C)(C)C)cc1)C(C)(O)c1ccc(OCCC[N+](C)(C)C)cc1` (configuration not stated), the EC50 was greater than 1820 µM and the IC50 was 794 µM.

For `Cn1c(COc2ccc(/C=N/NC(=O)c3cccc(C(=O)N/N=C/c4ccc(OCc5c[n+]6ccccc6n5C)cc4)c3)cc2)c[n+]2ccccc12`, the EC50 is greater than 6.92 µM and the IC50 is greater than 6.92 µM.

On to `CC1=C(C(=O)Nc2ccccc2C)C(c2ccccc2O)C(C(=O)Nc2ccccc2C)=C(C)N1`, for which the EC50 was 9.55 µM and the IC50 was 15.5 µM.

In the case of `O=C(O)c1ccc(/C=N\N(CCO)C2=NCCN2)cc1`, the EC50 was greater than 200 µM and the IC50 was greater than 200 µM.

On to `COc1ccc(-c2oc3cc(OC)c(OC)c(O)c3c(=O)c2O)cc1O`, for which the EC50 was greater than 200 µM and the half-inhibitory concentration (IC50) worked out at 1.05 µM.

For the molecule `OC(Cc1ccc2ccccc2c1)CN1CCC(c2ccccc2)CC1` (configuration not stated), the EC50 is greater than 93.3 µM and the 50% inhibitory concentration (IC50) was determined as 37.2 µM.

As for `O=C(O)c1ccccc1C(=O)OCC1CCCN2CCCCC12` (configuration not stated), the EC50 was greater than 151 µM and the IC50 was greater than 151 µM.

In the case of `COc1cccc(C=O)c1[O-].COc1cccc(C=O)c1[O-].[Zn+2]`, the EC50 was greater than 676 µM and the IC50 turned out to be 21.9 µM.

As for `CC1C=CC(O)[C@]2(CO)CC3(CCC12)OCCO3` (some centres not stated), the outcome was inactive.
